Measured values: PubChem BioAssay (NCI)
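Cells were grown in 96-well plates and exposed to each compound for 48 hours at five concentrations; endpoints were interpolated linearly between bracketing concentrations, or set to the highest concentration if not reached. GI50 is the concentration that inhibits growth by half. TGI marks complete inhibition of growth.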

Legend:
Test in all cases: inhibition of tumour cell growth, NCI panel, 48 h; in the data active means GI50 below about 0.43 µM; inactive means the rest
UO-31 renal = test system: UO-31 renal
CCRF-CEM leukemia = test system: CCRF-CEM leukemia
MDA-MB-468 breast = test system: MDA-MB-468 breast
BT-549 breast = test system: BT-549 breast
CAKI-1 renal = test system: CAKI-1 renal
NCI-H226 lung = test system: NCI-H226 lung
TK-10 renal = test system: TK-10 renal
HS 578T breast = test system: HS 578T breast
SK-MEL-28 melanoma = test system: SK-MEL-28 melanoma
NCI-H460 lung = test system: NCI-H460 lung
MALME-3M melanoma = test system: MALME-3M melanoma
SF-539 CNS = test system: SF-539 CNS
SNB-19 CNS = test system: SNB-19 CNS
U251 CNS = test system: U251 CNS
HOP-92 NSCLC = test system: HOP-92 NSCLC
UACC-62 melanoma = test system: UACC-62 melanoma
NCI-H522 lung = test system: NCI-H522 lung
OVCAR-8 ovarian = test system: OVCAR-8 ovarian
RPMI-8226 leukemia = test system: RPMI-8226 leukemia
T-47D breast = test system: T-47D breast
MCF7 breast = test system: MCF7 breast
MDA-MB-231 breast = test system: MDA-MB-231 breast
SF-295 CNS = test system: SF-295 CNS
MOLT-4 leukemia = test system: MOLT-4 leukemia
IGROV1 ovarian = test system: IGROV1 ovarian
SK-OV-3 ovarian = test system: SK-OV-3 ovarian
SR leukemia = test system: SR leukemia
OVCAR-4 ovarian = test system: OVCAR-4 ovarian
A498 renal = test system: A498 renal
SF-268 CNS = test system: SF-268 CNS
HCC-2998 colon = test system: HCC-2998 colon
786-0 renal = test system: 786-0 renal
KM12 colon = test system: KM12 colon
ACHN renal = test system: ACHN renal
RXF 393 renal = test system: RXF 393 renal
OVCAR-5 ovarian = test system: OVCAR-5 ovarian
NCI/ADR-RES ovarian = test system: NCI/ADR-RES ovarian
HOP-62 NSCLC = test system: HOP-62 NSCLC
HCT-116 colon = test system: HCT-116 colon
HCT-15 colon = test system: HCT-15 colon
PC-3 prostate = test system: PC-3 prostate
HL-60(TB) leukemia = test system: HL-60(TB) leukemia
K-562 leukemia = test system: K-562 leukemia
A549 NSCLC = test system: A549 NSCLC
COLO 205 colon = test system: COLO 205 colon
M14 melanoma = test system: M14 melanoma
SN12C renal = test system: SN12C renal
DU-145 prostate = test system: DU-145 prostate
OVCAR-3 ovarian = test system: OVCAR-3 ovarian
LOX IMVI melanoma = test system: LOX IMVI melanoma
HT29 colon = test system: HT29 colon
EKVX NSCLC = test system: EKVX NSCLC
SW-620 colon = test system: SW-620 colon
NCI-H23 lung = test system: NCI-H23 lung
SK-MEL-5 melanoma = test system: SK-MEL-5 melanoma
UACC-257 melanoma = test system: UACC-257 melanoma
MDA-MB-435 = test system: MDA-MB-435

O=C(Nc1ccc(C(F)(F)F)cc1)Nc1ccc2oc(=O)ccc2c1
5.73 µM: TGI (HOP-92 NSCLC)
inactive: GI50 (UO-31 renal) 2.14 µM | GI50 (CCRF-CEM leukemia) 3.2 µM | GI50 (MDA-MB-468 breast) 2.97 µM | GI50 (BT-549 breast) 3.4 µM | GI50 (CAKI-1 renal) 2.58 µM | GI50 (NCI-H226 lung) 3.67 µM | GI50 (TK-10 renal) > 100 µM | GI50 (HS 578T breast) 16.7 µM | GI50 (SK-MEL-28 melanoma) > 100 µM | GI50 (NCI-H460 lung) 4.17 µM | GI50 (MALME-3M melanoma) 4.87 µM | GI50 (SF-539 CNS) 5.81 µM | GI50 (SNB-19 CNS) 4.37 µM | GI50 (U251 CNS) 4.34 µM | GI50 (HOP-92 NSCLC) 1.49 µM | GI50 (UACC-62 melanoma) 5.76 µM | GI50 (NCI-H522 lung) 2.8 µM | GI50 (OVCAR-8 ovarian) 5.93 µM | GI50 (RPMI-8226 leukemia) 2.04 µM | GI50 (T-47D breast) 2.85 µM | GI50 (MCF7 breast) 2.48 µM | GI50 (MDA-MB-231 breast) 11.7 µM | GI50 (SF-295 CNS) 2.63 µM | GI50 (MOLT-4 leukemia) 2.86 µM | GI50 (IGROV1 ovarian) 3.55 µM | GI50 (SK-OV-3 ovarian) 91.4 µM | GI50 (SR leukemia) 3.86 µM | GI50 (OVCAR-4 ovarian) 5.4 µM | GI50 (A498 renal) > 100 µM | GI50 (SF-268 CNS) 18.6 µM | GI50 (HCC-2998 colon) 3.51 µM | GI50 (786-0 renal) 19.3 µM | GI50 (KM12 colon) 3.51 µM | GI50 (ACHN renal) 2.7 µM | GI50 (RXF 393 renal) 18.2 µM | GI50 (OVCAR-5 ovarian) > 100 µM | GI50 (NCI/ADR-RES ovarian) 3.86 µM | GI50 (HOP-62 NSCLC) 9.77 µM | GI50 (HCT-116 colon) 2.95 µM | GI50 (HCT-15 colon) 2.91 µM | GI50 (PC-3 prostate) 2.34 µM
> 100 µM: TGI (UO-31 renal) | TGI (CCRF-CEM leukemia) | TGI (MDA-MB-468 breast) | TGI (BT-549 breast) | TGI (CAKI-1 renal) | TGI (NCI-H226 lung) | TGI (TK-10 renal) | TGI (HS 578T breast) | TGI (SK-MEL-28 melanoma) | TGI (NCI-H460 lung) | TGI (MALME-3M melanoma) | TGI (SF-539 CNS) | TGI (SNB-19 CNS) | TGI (U251 CNS) | TGI (UACC-62 melanoma) | TGI (NCI-H522 lung) | TGI (OVCAR-8 ovarian) | TGI (T-47D breast) | TGI (MCF7 breast) | TGI (MDA-MB-231 breast) | TGI (SF-295 CNS) | TGI (MOLT-4 leukemia) | TGI (IGROV1 ovarian) | TGI (SK-OV-3 ovarian) | TGI (SR leukemia) | TGI (OVCAR-4 ovarian) | TGI (A498 renal) | TGI (SF-268 CNS) | TGI (HCC-2998 colon) | TGI (786-0 renal) | TGI (KM12 colon) | TGI (ACHN renal) | TGI (RXF 393 renal) | TGI (OVCAR-5 ovarian) | TGI (NCI/ADR-RES ovarian) | TGI (HOP-62 NSCLC) | TGI (HCT-116 colon) | TGI (HCT-15 colon) | TGI (PC-3 prostate)
5.87 µM: TGI (RPMI-8226 leukemia)

N#CC1=C(c2ccco2)Nc2c(c(-c3ccccc3)nn2-c2ccccc2)C12C(=O)Nc1ccc(Cl)cc12 (configuration not stated)
32.4 µM: TGI (NCI-H23 lung)
61 µM: TGI (OVCAR-3 ovarian) | TGI (ACHN renal)
38.8 µM: TGI (NCI-H522 lung)
40.9 µM: TGI (HS 578T breast)
66 µM: TGI (EKVX NSCLC)
90.1 µM: TGI (SF-268 CNS)
56 µM: TGI (786-0 renal)
30.7 µM: TGI (OVCAR-8 ovarian)
43.9 µM: TGI (DU-145 prostate)
30.6 µM: TGI (TK-10 renal)
29.8 µM: TGI (MALME-3M melanoma)
> 100 µM: TGI (CCRF-CEM leukemia) | TGI (CAKI-1 renal) | TGI (HL-60(TB) leukemia) | TGI (K-562 leukemia) | TGI (RPMI-8226 leukemia) | TGI (T-47D breast) | TGI (SR leukemia) | TGI (KM12 colon) | TGI (SW-620 colon) | TGI (OVCAR-5 ovarian) | TGI (HCT-15 colon) | TGI (MDA-MB-435)
47.1 µM: TGI (LOX IMVI melanoma)
30.2 µM: TGI (HT29 colon)
50.2 µM: TGI (NCI-H226 lung)
29.7 µM: TGI (COLO 205 colon)
25.1 µM: TGI (A549 NSCLC)
41.8 µM: TGI (SK-MEL-5 melanoma)
inactive: GI50 (CCRF-CEM leukemia) 49.7 µM | GI50 (MDA-MB-468 breast) 19 µM | GI50 (BT-549 breast) 12.2 µM | GI50 (CAKI-1 renal) 29.5 µM | GI50 (NCI-H226 lung) 17.5 µM | GI50 (TK-10 renal) 15 µM | GI50 (HS 578T breast) 12.6 µM | GI50 (SK-MEL-28 melanoma) 15.5 µM | GI50 (NCI-H460 lung) 14.1 µM | GI50 (MALME-3M melanoma) 14.7 µM | GI50 (HL-60(TB) leukemia) 15 µM | GI50 (SF-539 CNS) 17.9 µM | GI50 (SNB-19 CNS) 17.4 µM | GI50 (U251 CNS) 13.3 µM | GI50 (HOP-92 NSCLC) 12.8 µM | GI50 (K-562 leukemia) 16.6 µM | GI50 (UACC-62 melanoma) 11.4 µM | GI50 (A549 NSCLC) 11.6 µM | GI50 (NCI-H522 lung) 14.5 µM | GI50 (OVCAR-8 ovarian) 15.7 µM | GI50 (RPMI-8226 leukemia) 18.7 µM | GI50 (T-47D breast) 19.5 µM | GI50 (COLO 205 colon) 14.7 µM | GI50 (M14 melanoma) 15 µM | GI50 (MCF7 breast) 15.7 µM | GI50 (SN12C renal) 17 µM | GI50 (SF-295 CNS) 16.9 µM | GI50 (MOLT-4 leukemia) 6.05 µM | GI50 (IGROV1 ovarian) 16.3 µM | GI50 (SK-OV-3 ovarian) 15.8 µM | GI50 (SR leukemia) 23.3 µM | GI50 (DU-145 prostate) 19.4 µM | GI50 (OVCAR-3 ovarian) 20.4 µM | GI50 (LOX IMVI melanoma) 19.2 µM | GI50 (OVCAR-4 ovarian) 15.4 µM | GI50 (A498 renal) 14.5 µM | GI50 (SF-268 CNS) 17.8 µM | GI50 (HCC-2998 colon) 19.2 µM | GI50 (HT29 colon) 14.6 µM | GI50 (786-0 renal) 16.2 µM | GI50 (KM12 colon) 49.5 µM | GI50 (EKVX NSCLC) 16.5 µM | GI50 (SW-620 colon) 30.3 µM | GI50 (ACHN renal) 18.1 µM | GI50 (RXF 393 renal) 13.2 µM | GI50 (OVCAR-5 ovarian) 23.8 µM | GI50 (NCI/ADR-RES ovarian) 14.8 µM | GI50 (NCI-H23 lung) 15.5 µM | GI50 (SK-MEL-5 melanoma) 18 µM | GI50 (HOP-62 NSCLC) 14.8 µM | GI50 (HCT-116 colon) 13.1 µM | GI50 (HCT-15 colon) 19.6 µM | GI50 (PC-3 prostate) 12 µM | GI50 (UACC-257 melanoma) 16.6 µM | GI50 (MDA-MB-435) 34.8 µM
28 µM: TGI (PC-3 prostate)
41.4 µM: TGI (UACC-257 melanoma)
46 µM: TGI (SNB-19 CNS)
30.9 µM: TGI (A498 renal)
28.2 µM: TGI (BT-549 breast) | TGI (UACC-62 melanoma)
58.9 µM: TGI (HCC-2998 colon)
28.5 µM: TGI (HOP-92 NSCLC)
31.8 µM: TGI (NCI-H460 lung)
40.6 µM: TGI (SF-539 CNS)
64.7 µM: TGI (MDA-MB-468 breast)
26 µM: TGI (HCT-116 colon)
28.9 µM: TGI (HOP-62 NSCLC)
29.2 µM: TGI (U251 CNS)
56.3 µM: TGI (SF-295 CNS)
33 µM: TGI (SK-MEL-28 melanoma)
30 µM: TGI (NCI/ADR-RES ovarian)
33.3 µM: TGI (OVCAR-4 ovarian)
36.7 µM: TGI (SN12C renal)
29.9 µM: TGI (RXF 393 renal)
38.4 µM: TGI (IGROV1 ovarian)
91.2 µM: TGI (MOLT-4 leukemia)
33.9 µM: TGI (SK-OV-3 ovarian)
32.7 µM: TGI (M14 melanoma)
49.7 µM: TGI (MCF7 breast)
